± gives the expanded uncertainty stated by the source.
Conditions: Liquid, Vibrating tube method

CCCCCCC [heptane]
Conditions	mass density [kg/m3]
343.15 K, 47908 kPa	688 ± 1
343.15 K, 50059 kPa	689.668 ± 1.1
343.15 K, 52026 kPa	691.103 ± 1.1
343.15 K, 59944 kPa	696.69 ± 1.1
343.15 K, 61966 kPa	697.921 ± 1.1
343.15 K, 65070 kPa	699.939 ± 1.1
343.15 K, 66059 kPa	700.533 ± 1.2
343.16 K, 34034 kPa	676.976 ± 0.96
343.16 K, 54918 kPa	693.158 ± 1.1
343.16 K, 57986 kPa	695.23 ± 1.1
348.15 K, 100.3 kPa	636.109 ± 0.82
348.15 K, 462.2 kPa	636.505 ± 0.82
348.15 K, 859.8 kPa	637.192 ± 0.82
348.15 K, 974.2 kPa	637.393 ± 0.82
348.15 K, 1974.9 kPa	638.781 ± 0.82
348.15 K, 3051.1 kPa	640.295 ± 0.82
348.15 K, 5094 kPa	643.002 ± 0.83
348.15 K, 10025 kPa	649.256 ± 0.85
348.15 K, 14792 kPa	654.622 ± 0.87
348.15 K, 20111 kPa	660.386 ± 0.89
348.15 K, 22163 kPa	662.539 ± 0.9
348.15 K, 28080 kPa	668.108 ± 0.93
348.15 K, 30149 kPa	670.002 ± 0.94
348.15 K, 32161 kPa	671.799 ± 0.95
348.15 K, 32935 kPa	672.452 ± 0.96
348.15 K, 33959 kPa	673.504 ± 0.96
348.15 K, 35045 kPa	674.428 ± 0.97
348.15 K, 37937 kPa	676.834 ± 0.99
348.15 K, 40026 kPa	678.502 ± 1
348.15 K, 45051 kPa	682.511 ± 1
348.15 K, 47915 kPa	684.825 ± 1
348.15 K, 49950 kPa	686.336 ± 1.1
348.15 K, 52167 kPa	688.088 ± 1.1
348.15 K, 55022 kPa	690.168 ± 1.1
348.15 K, 57945 kPa	692.261 ± 1.1
348.15 K, 62063 kPa	695.106 ± 1.1
348.15 K, 64942 kPa	696.91 ± 1.2
348.15 K, 66153 kPa	697.788 ± 1.2
348.16 K, 291.7 kPa	636.475 ± 0.82
348.16 K, 7050.2 kPa	645.632 ± 0.84
348.16 K, 9003.2 kPa	648.038 ± 0.84
348.16 K, 12187 kPa	651.83 ± 0.86
348.16 K, 17899 kPa	658.098 ± 0.88
348.16 K, 25100 kPa	665.329 ± 0.92
348.16 K, 32942 kPa	672.463 ± 0.96
348.16 K, 42066 kPa	680.23 ± 1
348.16 K, 60030 kPa	693.748 ± 1.1
353.15 K, 100.5 kPa	631.649 ± 0.82
353.15 K, 336 kPa	631.995 ± 0.82
353.15 K, 572.6 kPa	632.233 ± 0.82
353.15 K, 926 kPa	632.774 ± 0.82
353.15 K, 1016.4 kPa	632.95 ± 0.82
353.15 K, 2992.1 kPa	635.919 ± 0.82
353.15 K, 4963.9 kPa	638.644 ± 0.83
353.15 K, 7000.9 kPa	641.284 ± 0.84
353.15 K, 9062.3 kPa	643.911 ± 0.84
353.15 K, 10005 kPa	645.176 ± 0.85
353.15 K, 12128 kPa	647.788 ± 0.86
353.15 K, 14954 kPa	651.028 ± 0.87
353.15 K, 17977 kPa	654.406 ± 0.88
353.15 K, 19937 kPa	656.492 ± 0.89
353.15 K, 21894 kPa	658.507 ± 0.9
353.15 K, 24908 kPa	661.562 ± 0.92
353.15 K, 27850 kPa	664.482 ± 0.93
353.15 K, 29936 kPa	666.345 ± 0.94
353.15 K, 31876 kPa	668.022 ± 0.95
353.15 K, 32911 kPa	668.934 ± 0.96
353.15 K, 32961 kPa	669.075 ± 0.96
353.15 K, 34945 kPa	670.985 ± 0.97
353.15 K, 37913 kPa	673.509 ± 0.99
353.15 K, 40143 kPa	675.336 ± 1
353.15 K, 42067 kPa	677.003 ± 1
353.15 K, 45002 kPa	679.292 ± 1
353.15 K, 48029 kPa	681.775 ± 1.1
353.15 K, 50145 kPa	683.478 ± 1.1
353.15 K, 52082 kPa	685.052 ± 1.1
353.15 K, 55132 kPa	687.213 ± 1.1
353.15 K, 57980 kPa	689.013 ± 1.1
353.15 K, 60098 kPa	690.731 ± 1.1
353.15 K, 65063 kPa	694.154 ± 1.2
353.16 K, 2113.4 kPa	634.631 ± 0.82
353.16 K, 33964 kPa	670.126 ± 0.97
353.16 K, 62042 kPa	692.223 ± 1.1
353.16 K, 66024 kPa	694.802 ± 1.2
358.15 K, 100.4 kPa	626.935 ± 0.82
358.15 K, 264.1 kPa	627.168 ± 0.82
358.15 K, 508.4 kPa	627.316 ± 0.82
358.15 K, 926.8 kPa	628.098 ± 0.82
358.15 K, 1013.9 kPa	628.327 ± 0.82
358.15 K, 3021.2 kPa	631.365 ± 0.82
358.15 K, 4930 kPa	634.077 ± 0.83
358.15 K, 10073 kPa	641.066 ± 0.85
358.15 K, 12137 kPa	643.735 ± 0.86
358.15 K, 14905 kPa	646.944 ± 0.87
358.15 K, 17965 kPa	650.491 ± 0.88
358.15 K, 22175 kPa	654.965 ± 0.91
358.15 K, 25059 kPa	657.993 ± 0.92
358.15 K, 28035 kPa	660.974 ± 0.94
358.15 K, 30002 kPa	662.532 ± 0.95
358.15 K, 31978 kPa	664.488 ± 0.96
358.15 K, 32793 kPa	665.093 ± 0.96
358.15 K, 33039 kPa	665.404 ± 0.96
358.15 K, 33850 kPa	666.525 ± 0.97
358.15 K, 35026 kPa	667.567 ± 0.98
358.15 K, 37872 kPa	669.996 ± 0.99
358.15 K, 40037 kPa	671.748 ± 1
358.15 K, 42100 kPa	673.454 ± 1
358.15 K, 47958 kPa	678.424 ± 1.1
358.15 K, 50038 kPa	680.129 ± 1.1
358.15 K, 52081 kPa	681.85 ± 1.1
358.15 K, 55073 kPa	684.059 ± 1.1
358.15 K, 57918 kPa	685.685 ± 1.1
358.15 K, 60043 kPa	687.68 ± 1.1
358.15 K, 62066 kPa	689.111 ± 1.1
358.15 K, 64986 kPa	691.283 ± 1.2
358.15 K, 66109 kPa	692.023 ± 1.2
358.16 K, 2083.9 kPa	629.903 ± 0.82
358.16 K, 6993.5 kPa	637.086 ± 0.84
358.16 K, 9030.2 kPa	639.755 ± 0.84
358.16 K, 20162 kPa	652.87 ± 0.89
358.16 K, 45054 kPa	675.954 ± 1
363.15 K, 104.1 kPa	622.138 ± 0.82
363.15 K, 334 kPa	622.474 ± 0.82
363.15 K, 601.7 kPa	622.649 ± 0.82
363.15 K, 892.9 kPa	623.267 ± 0.82
363.15 K, 1034.7 kPa	623.668 ± 0.82
363.15 K, 1986 kPa	625.081 ± 0.82
363.15 K, 2940.4 kPa	626.678 ± 0.82
363.15 K, 4979.2 kPa	629.757 ± 0.83
363.15 K, 9959.5 kPa	636.563 ± 0.85
363.15 K, 11971 kPa	639.421 ± 0.86
363.15 K, 14936 kPa	642.887 ± 0.87
363.15 K, 17973 kPa	646.544 ± 0.89
363.15 K, 19940 kPa	648.708 ± 0.9
363.15 K, 24872 kPa	654.024 ± 0.92
363.15 K, 27993 kPa	657.078 ± 0.94
363.15 K, 30062 kPa	659.006 ± 0.95
363.15 K, 31961 kPa	660.63 ± 0.96
363.15 K, 33033 kPa	661.606 ± 0.97
363.15 K, 33053 kPa	661.633 ± 0.97
363.15 K, 34000 kPa	663.017 ± 0.97
363.15 K, 35028 kPa	664.03 ± 0.98
363.15 K, 37919 kPa	666.495 ± 1
363.15 K, 39916 kPa	668.059 ± 1
363.15 K, 42016 kPa	669.917 ± 1
363.15 K, 47947 kPa	675.063 ± 1.1
363.15 K, 50050 kPa	676.807 ± 1.1
363.15 K, 52023 kPa	678.457 ± 1.1
363.15 K, 54940 kPa	680.815 ± 1.1
363.15 K, 57916 kPa	682.78 ± 1.1
363.15 K, 59980 kPa	684.625 ± 1.1
363.15 K, 62043 kPa	686.168 ± 1.2
363.15 K, 64924 kPa	688.267 ± 1.2
363.15 K, 66088 kPa	689.169 ± 1.2
363.16 K, 6920.2 kPa	632.642 ± 0.84
363.16 K, 8964.8 kPa	635.395 ± 0.85
363.16 K, 21933 kPa	650.806 ± 0.91
363.16 K, 44987 kPa	672.551 ± 1

— the NIST ThermoML archive (doi:10.1021/je5010214)
